# Data reported in patent US6660263B2, “Oocydin and methods of use for protection of plants from Oomyocyte pathogens” (HMV Corporation, priority 2000, dated 2003).
# Where a SMILES comes first, the peptide text is derived from it. Bridges are numbered along the chain shown (N, C = ends). [ ]: non-standard residue; d: D form. The star is where a group is joined. Tetradecanoyl(3R-OH) = CCCCCCCCCCC[C@@H](O)CC(=O)*; Asp(3S-OH) = N[C@H](C(=O)O)[C@H](O)C(=O)O; Thr(4-Cl) = N[C@H](C(=O)O)[C@H](O)CCl; aThr = C[C@H](O)[C@H](N)C(=O)O; dDab = NCC[C@@H](N)C(=O)O; Dab = NCC[C@H](N)C(=O)O; Dhb = C/C=C(\N)C(=O)O
# Key:
# Phytophthora cinnamomi = experiment: MIC in PD broth, 24-well plate
# Phytophthora parasitica = experiment: MIC in PD broth, 24-well plate
# Phytophthora spp. = experiment: MIC in PD broth, 24-well plate; assay type: cell-based; details: the most sensitive Oomycetes
# Pythium ultimum = experiment: MIC in PD broth, 24-well plate; assay type: cell-based
# Alternaria tomato = assay type: cell-based
# Aspergillus fumigatus = assay type: cell-based
# [1] = tested on: normal human mammary cell line (cc2551 HMEC); experiment: Neutral red cytotoxicity assay; assay type: cell-based; details: 3 days of exposure, preliminary studies
# Description: (§1) Oocydin A was tested also against human cancer cell lines BT-20, MCF 7(American Type Culture Collection, Bethesda, Md., USA) and compared with activity against a normal human mammary human cell line (cc2551 HMEC from Clonetics, San Diego, Calif., USA). These cells were exposed to serial dilutions of oocydin A. After 3 days of exposure, the cells were stained with neutral red and the absorbance measured at 540 nm. For non-adherent cells a modification of the staining protocol of Berent, S. L. et al., (1986) Nucleic Acid Res 14, 8997-9015 was used. The results were recorded as IC50 values.
# Geotrichum candidum = assay type: cell-based
# P. ultimum = experiment: Plate bioassay of fractions on PDA; assay type: cell-based, Pythium ultimum; details: contents of the single HPLC peak (retention time 19.7 min) against P. ultimum
# Description: Bioassays. A simple plate bioassay test was used to detect bioactivity of various fractions in the purification of oocydin. Aliquots (10-20 μl) of sample were placed on a PDA plate, dried by placement under a hood having positive airflow, and then inoculated with 0.5×0.5 cm plugs of agar containing P. ultimum. The agar plugs were placed in each of the quadrants of the plate and then incubated for 36-48 hr at 23 C. Antioomycetous activity was apparent as a zone of growth inhibition.
# Sclerotinia sclerotiorum = assay type: cell-based
# [2] = tested on: MCF-7 (breast cancer cell line); experiment: Neutral red cytotoxicity assay; assay type: cell-based, human; details: 3 days of exposure, preliminary studies
# Description: as §1
# Verticillum dahliae = assay type: cell-based
# Rhizoctonia solani = assay type: cell-based
# Phytophthora citrophora = experiment: MIC in PD broth, 24-well plate; assay type: cell-based
structure (smiles),measurement,setting,value
"COCC(=O)N(c1c(C)cccc1C)C(C)C(=O)OC (racemic) [Metalaxyl, N-(2,6-dimethylphenyl)-N-(methoxyacetyl)-DL-alanine methyl ester, reference compound]",MIC,"Phytophthora cinnamomi; Phytophthora cinnamomi, read-out: Metalaxyl MIC",0.06 µg/mL
same,MIC,"Phytophthora parasitica; Phytophthora nicotianae, read-out: Metalaxyl MIC",0.06 µg/mL
"C/C=C1\NC(=O)[C@H]([C@H](C)O)NC(=O)[C@H](CCN)NC(=O)[C@H](CCCCN)NC(=O)[C@H](CC(=O)O)NC(=O)[C@@H](CCN)NC(=O)[C@@H](NC(=O)C[C@H](O)CCCCCCCCCCC)COC(=O)[C@H]([C@H](O)CCl)NC(=O)[C@H]([C@H](O)C(=O)O)NC1=O [pseudomycin B, reference compound] ({Tetradecanoyl(3R-OH)}-S[dDab]DK[Dab][aThr][Dhb][Asp(3S-OH)][Thr(4-Cl)]; ester 1-C; N-terminus assumed)",MIC,Candida albicans,< 1.0 µg/mL
same,MIC,Cryptococcus neoformans,< 1.0 µg/mL
same,MIC,Histoplasma capsulatum,< 1.0 µg/mL
same,MIC,Candida parapsilosis,< 1.0 µg/mL
CC(=O)OC1CC(=O)O[C@H]2C[C@H](CC/C(Cl)=C\C/C=C\1C)O[C@H]2[C@@H](O)/C=C(\C)CC(=O)O (stereo partly shown) [oocydin A],Minimum inhibitory concentration (MIC),Phytophthora cinnamomi; P. cinnamomi,circa 0.03 μg ml^−1
same,Oocydin MIC Test 1,"Phytophthora cinnamomi; Phytophthora cinnamomi, Test 1",0.03 µg/mL
same,Oocydin MIC Test 2,"Phytophthora cinnamomi; Phytophthora cinnamomi, Test 2",0.02 µg/mL
same,effect on growth,Candida albicans,no effect
same,MIC,Phytophthora spp.,approximately 0.03 μg ml^−1
same,Oocydin MIC Test 1,"Pythium ultimum; Test 1, no visible growth after 48 or 72 hr at 23° C.",0.11 µg/mL
same,Oocydin MIC Test 2,"Pythium ultimum; Test 2, no visible growth after 48 or 72 hr at 23° C.",0.39 µg/mL
same,Minimum inhibitory concentration (MIC),Phytophthora parasitica; Phytophthora parasitica,circa 0.03 μg ml^−1
same,Oocydin MIC Test 1,"Phytophthora parasitica; Phytophthora parasitica, Test 1",0.03 µg/mL
same,Oocydin MIC Test 2,"Phytophthora parasitica; Phytophthora parasitica, Test 2",0.05 µg/mL
same,activity in plate tests,Alternaria tomato,no activity
same,effect on growth,Aspergillus fumigatus,no effect
same,IC50,[1],0.6 µg/mL
same,activity on PDA plates,Geotrichum candidum,inactive
same,effect on growth,Cryptococcus neoformans,no effect
same,effect on growth,Histoplasma capsulatum,no effect
same,bioassay activity,P. ultimum,active
same,activity on PDA plates,Sclerotinia sclerotiorum,only slight inhibition of growth
same,IC50,[2],0.42 µg/mL
same,activity in plate tests,Verticillum dahliae,no activity
same,activity on PDA plates,Rhizoctonia solani,only slight inhibition of growth
same,effect on growth,Candida parapsilosis,no effect
same,Minimum inhibitory concentration (MIC),Phytophthora citrophora; P. citrophora,circa 0.03 μg ml^−1
same,Oocydin MIC Test 1,"Phytophthora citrophora; Phytophthora citrophora, Test 1",0.03 µg/mL
same,Oocydin MIC Test 2,"Phytophthora citrophora; Phytophthora citrophora, Test 2",0.02 µg/mL
